Test results reported in US6800625B2, “Substituted 2,4-dihydro-pyrrolo[3,4-b]quinolin-9-one derivatives useful as phosphodiesterase inhibitors” (Janssen Pharmaceutica N.V., priority 2002, dated 2004).

Legend:
[1] = target: PDEV (UniProt O76074); experiment: Cyclic nucleotide phosphodiesterase (PDE) assay, measurement of inhibition of PDEV; assay type: biochemical, rabbit or human; conditions: PDEV isolated from rabbit and human tissues; 1 μM cGMP, 10% DMSO, 30° C., 30 minutes
Method: Cyclic Nucleotide Phosphodiesterase (PDE) Assay
PDEV was isolated from rabbit and human tissues according to the protocol described by Boolell et al. (Boolell, M., Allen, M. J., Ballard, S. A., Ge[o-Attee, S., Muirhead, G. J., Naylor, A. M., Osterdoh, I. H., and Gingell, C) in International Journal of Impotence Research 1996 8, 47-52 with minor modifications.
Briefly, rabbit or human tissues were homogenized in an ice-cold buffer solution containing 20 mM HEPES (pH 7.2), 0.25M sucrose, 1 mM EDTA, and 1 mM phenylmethylsulphonyl fluoride (PMSF). The homogenates were centrifuged at 100,000 g for 60 minutes at 4° C. The supernatant was filtered through […] filter and loaded on a Pharmacia Mono Q anion exchange column (1 ml bed volume) that was equilibrated with 20 mM HEPES, 1 mM EDTA and 0.5 mM PMSF. After washing out unbound proteins, the enzymes were eluted with a linear gradient of 100-600 mM NaCl in the same buffer (35 to 50 ml total, depending on the tissue. Enzymes from the skeletal muscle, corpus cavernosum, retina, heart and platelet were eluted with 35, 40, 45, 50, and 50 ml respectively.) The column was run at a flow rate of 1 ml/min and 1 ml fractions were collected. […]
The assays were adapted to a 96-well format. […] An aliquot of 200 μl was taken and counted by liquid scintillation. PDE activity was expressed as pmol cyclic nucleotide hydrolyzed/min/ml of enzyme preparation. […]

[2] = system: men who suffer from ED; conditions: cited from earlier work

Row | IC50 [1] [nM] | SMILES | improved sexual function, share of men ([2]; men who suffer from ED of psychogenic or organic etiology, clinical studies) | improved erections, share of patients ([2]; patients who had undergone a radical prostatectomy, versus 15% on placebo) [%] | undesirable side effects ([2]; use of sildenafil, result from non-selective effects on a variety of tissues)
1 | 299 | O=c1c2ccccc2[nH]c2c(-c3ccc4c(c3)OCO4)n(Cc3ccccc3)cc12 [Compound 2] |  |  | 
2 | 545 | O=C1c2ccccc2NC23OC12CN(Cc1ccccc1)C3c1ccc2c(c1)OCO2 (centres unmarked) [Compound 1] |  |  | 
3 |  | CCCc1nn(C)c2c(=O)[nH]c(-c3cc(S(=O)(=O)N4CCN(C)CC4)ccc3OCC)nc12 [sildenafil, 5-[2-ethoxy-5-(4-methylpiperazin-1-ylsulphonyl)phenyl]-1-methyl-3-n-propyl-6,7-dihydro-1H-pyrazolo[4,3-d]pyrimidin-7-one] | about 70% | 43 | headache, flushing and disrupted color vision
